Measurements reported in PubChem BioAssay AID1963961 (Molecular Pharmacology Branch, DTP, NCI, 2024).
pIC50: −log10 of the molar value.

Test system: K98450-129-R-PDC multicell spheroids, viability
Test: Anticancer human tumor K98450-129-R-PDC patient-derived colon adenocarcinoma cell line growth inhibition [PI3K]
Conditions: for pIC50: curve of first compound; for viability, T/C: stronger effect = lower value
In short: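 Viability of mixed-cell spheroids was determined after exposure to pairwise combinations, one partner being inavolisib, alpelisib, duvelisib or copanlisib. Highest tested concentration matched clinical Cmax where known and 10 microM where not, descending in half-log steps.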

[1] = second compound 0.0316 µM, first compound 0.00949 µM
[2] = second compound 0.0316 µM, first compound 0.03 µM
[3] = second compound 0.0316 µM, first compound 0.0949 µM
[4] = second compound 0.0316 µM, first compound 0.3 µM
[5] = second compound 0.0316 µM, first compound 0.949 µM
[6] = second compound 0.0316 µM, first compound 3 µM
[7] = second compound 0.1 µM, first compound 0.00949 µM
[8] = second compound 0.1 µM, first compound 0.03 µM
[9] = second compound 0.1 µM, first compound 0.0949 µM
[10] = second compound 0.1 µM, first compound 0.3 µM
[11] = second compound 0.1 µM, first compound 0.949 µM
[12] = second compound 0.1 µM, first compound 3 µM
[13] = second compound 0.316 µM, first compound 0.00949 µM
[14] = second compound 0.316 µM, first compound 0.03 µM
[15] = second compound 0.316 µM, first compound 0.0949 µM
[16] = second compound 0.316 µM, first compound 0.3 µM
[17] = second compound 0.316 µM, first compound 0.949 µM
[18] = second compound 0.316 µM, first compound 3 µM
[19] = second compound 1 µM, first compound 0.00949 µM
[20] = second compound 1 µM, first compound 0.03 µM
[21] = second compound 1 µM, first compound 0.0949 µM
[22] = second compound 1 µM, first compound 0.3 µM
[23] = second compound 1 µM, first compound 0.949 µM
[24] = second compound 1 µM, first compound 3 µM
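Note: spheroids exposed to agents for seven days before read-out.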

For `Cn1cnc2c(F)c(Nc3ccc(Br)cc3Cl)c(C(=O)NOCCO)cc21` + CC(Nc1ccc2c(c1)OCCn1cc(N3C(=O)OCC3C(F)F)nc1-2)C(N)=O, the pIC50 (second compound 0.00316 µM) was 5.88, the pIC50 (second compound 0.01 µM) was 5.94 and the pIC50 (second compound 0.0316 µM) was 5.92. It also gave a pIC50 (second compound 0.1 µM) of 5.91, a pIC50 (second compound 0.316 µM) of 6.07 and a pIC50 (second compound 1 µM) of 6.22. The viability, T/C (second compound 0.00316 µM, first compound 0.00949 µM) was 105%, the viability, T/C (second compound 0.00316 µM, first compound 0.03 µM) was 86.9% and the viability, T/C (second compound 0.00316 µM, first compound 0.0949 µM) was 95.5%. It also gave a viability, T/C (second compound 0.00316 µM, first compound 0.3 µM) of 76.1%, a viability, T/C (second compound 0.00316 µM, first compound 0.949 µM) of 62.1% and a viability, T/C (second compound 0.00316 µM, first compound 3 µM) of 25.7%. The viability, T/C (second compound 0.01 µM, first compound 0.00949 µM) was 102%, the viability, T/C (second compound 0.01 µM, first compound 0.03 µM) was 88.7% and the viability, T/C (second compound 0.01 µM, first compound 0.0949 µM) was 91%. The viability, T/C (second compound 0.01 µM, first compound 0.3 µM) was 75.4%, the viability, T/C (second compound 0.01 µM, first compound 0.949 µM) was 56.3% and the viability, T/C (second compound 0.01 µM, first compound 3 µM) was 21.9%. It also gave a viability, T/C [1] of 99.3%, a viability, T/C [2] of 93.4% and a viability, T/C [3] of 83%. For the same compound, the viability, T/C [4] was 75.3%, the viability, T/C [5] was 62.1% and the viability, T/C [6] was 17.7%. The viability, T/C [7] was 89.5%, the viability, T/C [8] was 81.8% and the viability, T/C [9] was 85.6%. For the same compound, the viability, T/C [10] was 76.5%, the viability, T/C [11] was 60.5% and the viability, T/C [12] was 16.7%. It also gave a viability, T/C [13] of 83.7%, a viability, T/C [14] of 83.5% and a viability, T/C [15] of 82.5%. The viability, T/C [16] was 72.2%, the viability, T/C [17] was 48% and the viability, T/C [18] was 11.1%. The viability, T/C [19] was 76.6%, the viability, T/C [20] was 77.5% and the viability, T/C [21] was 78.2%. The viability, T/C [22] was 66.8%, the viability, T/C [23] was 38.9% and the viability, T/C [24] was 9.63%.

With `Cn1ncnc1[C@H]1c2n[nH]c(=O)c3cc(F)cc(c23)N[C@@H]1c1ccc(F)cc1` + COc1c(OCCCN2CCOCC2)ccc2c3n(c(=NC(=O)c4cnc(N)nc4)nc12)CCN3 the pIC50 (second compound 0.00316 µM) was under 7.00, the pIC50 (second compound 0.01 µM) was under 7.00 and the pIC50 (second compound 0.0316 µM) was under 7.00. For the same compound, the pIC50 (second compound 0.1 µM) was under 7.00, the pIC50 (second compound 0.316 µM) was under 7.00 and the pIC50 (second compound 1 µM) was under 7.00. For the same compound, the viability, T/C (second compound 0.00316 µM, first compound 0.000316 µM) was 98.6%, the viability, T/C (second compound 0.00316 µM, first compound 0.001 µM) was 95.2% and the viability, T/C (second compound 0.00316 µM, first compound 0.00316 µM) was 96.7%. For the same compound, the viability, T/C (second compound 0.00316 µM, first compound 0.01 µM) was 98%, the viability, T/C (second compound 0.00316 µM, first compound 0.0316 µM) was 100% and the viability, T/C (second compound 0.00316 µM, first compound 0.1 µM) was 92.9%. The viability, T/C (second compound 0.01 µM, first compound 0.000316 µM) was 91.8%, the viability, T/C (second compound 0.01 µM, first compound 0.001 µM) was 89.6% and the viability, T/C (second compound 0.01 µM, first compound 0.00316 µM) was 95.1%. The viability, T/C (second compound 0.01 µM, first compound 0.01 µM) was 96.9%, the viability, T/C (second compound 0.01 µM, first compound 0.0316 µM) was 94.6% and the viability, T/C (second compound 0.01 µM, first compound 0.1 µM) was 91.9%. It also gave a viability, T/C (second compound 0.0316 µM, first compound 0.000316 µM) of 90.1%, a viability, T/C (second compound 0.0316 µM, first compound 0.001 µM) of 88.7% and a viability, T/C (second compound 0.0316 µM, first compound 0.00316 µM) of 94.5%. The viability, T/C (second compound 0.0316 µM, first compound 0.01 µM) was 90.6%, the viability, T/C (second compound 0.0316 µM, first compound 0.0316 µM) was 89.5% and the viability, T/C (second compound 0.0316 µM, first compound 0.1 µM) was 70.1%. It also gave a viability, T/C (second compound 0.1 µM, first compound 0.000316 µM) of 92.3%, a viability, T/C (second compound 0.1 µM, first compound 0.001 µM) of 85.5% and a viability, T/C (second compound 0.1 µM, first compound 0.00316 µM) of 88.6%. For the same compound, the viability, T/C (second compound 0.1 µM, first compound 0.01 µM) was 89.8%, the viability, T/C (second compound 0.1 µM, first compound 0.0316 µM) was 89.5% and the viability, T/C (second compound 0.1 µM, first compound 0.1 µM) was 78.6%. For the same compound, the viability, T/C (second compound 0.316 µM, first compound 0.000316 µM) was 56.6%, the viability, T/C (second compound 0.316 µM, first compound 0.001 µM) was 63.6% and the viability, T/C (second compound 0.316 µM, first compound 0.00316 µM) was 64.5%. The viability, T/C (second compound 0.316 µM, first compound 0.01 µM) was 48.5%, the viability, T/C (second compound 0.316 µM, first compound 0.0316 µM) was 59.1% and the viability, T/C (second compound 0.316 µM, first compound 0.1 µM) was 65.4%. The viability, T/C (second compound 1 µM, first compound 0.000316 µM) was 49.9%, the viability, T/C (second compound 1 µM, first compound 0.001 µM) was 58% and the viability, T/C (second compound 1 µM, first compound 0.00316 µM) was 52.8%. The viability, T/C (second compound 1 µM, first compound 0.01 µM) was 62%, the viability, T/C (second compound 1 µM, first compound 0.0316 µM) was 56.5% and the viability, T/C (second compound 1 µM, first compound 0.1 µM) was 54.1%.

Compound `Cn1cnc2c(F)c(Nc3ccc(Br)cc3Cl)c(C(=O)NOCCO)cc21` + Cc1nc(NC(=O)N2CCCC2C(N)=O)sc1-c1ccnc(C(C)(C)C(F)(F)F)c1 has a pIC50 (second compound 0.0316 µM) of 5.90, a pIC50 (second compound 0.1 µM) of 5.99 and a pIC50 (second compound 0.316 µM) of 6.00. It also gave a pIC50 (second compound 1 µM) of 6.16, a pIC50 (second compound 3.16 µM) of 6.36 and a pIC50 (second compound 10 µM) of 6.78. For the same compound, the viability, T/C [1] was 95.2%, the viability, T/C [2] was 87.1% and the viability, T/C [3] was 91.9%. For the same compound, the viability, T/C [4] was 78.3%, the viability, T/C [5] was 61.2% and the viability, T/C [6] was 17.2%. The viability, T/C [7] was 107%, the viability, T/C [8] was 89.1% and the viability, T/C [9] was 84.7%. It also gave a viability, T/C [10] of 77%, a viability, T/C [11] of 54.3% and a viability, T/C [12] of 15.6%. It also gave a viability, T/C [13] of 89%, a viability, T/C [14] of 89.2% and a viability, T/C [15] of 79.1%. The viability, T/C [16] was 71.2%, the viability, T/C [17] was 53.5% and the viability, T/C [18] was 11.2%. It also gave a viability, T/C [19] of 85.3%, a viability, T/C [20] of 82.4% and a viability, T/C [21] of 78.9%. For the same compound, the viability, T/C [22] was 67.2%, the viability, T/C [23] was 43.5% and the viability, T/C [24] was 8.14%. It also gave a viability, T/C (second compound 3.16 µM, first compound 0.00949 µM) of 76.8%, a viability, T/C (second compound 3.16 µM, first compound 0.03 µM) of 74.1% and a viability, T/C (second compound 3.16 µM, first compound 0.0949 µM) of 71.3%. The viability, T/C (second compound 3.16 µM, first compound 0.3 µM) was 58.5%, the viability, T/C (second compound 3.16 µM, first compound 0.949 µM) was 32.1% and the viability, T/C (second compound 3.16 µM, first compound 3 µM) was 4.89%. It also gave a viability, T/C (second compound 10 µM, first compound 0.00949 µM) of 63.1%, a viability, T/C (second compound 10 µM, first compound 0.03 µM) of 61.1% and a viability, T/C (second compound 10 µM, first compound 0.0949 µM) of 60.3%. The viability, T/C (second compound 10 µM, first compound 0.3 µM) was 39.4%, the viability, T/C (second compound 10 µM, first compound 0.949 µM) was 10.3% and the viability, T/C (second compound 10 µM, first compound 3 µM) was 2.85%.
